In paper PMC6916333, “A lysin motif effector subverts chitin‐triggered immunity to facilitate arbuscular mycorrhizal symbiosis” (The New Phytologist, 2019) one finds Kd data, which are given here for five compounds.

Read-outs that look alike come from different tables or passages of the source.

For this assay, the target named is T1, RiSLM (Rhizophagus irregularis, UniProt U9TZV5).
T1 construct: gene GLOIN_2v1561425; without signal peptide; single LysM domain; expressed in E. coli ORIGAMI from pET-SUMO, SUMO tag removed by ULP-1; c; 7 kDa (faint 14 and 21 kDa bands, possible oligomers); NT.115 RED dye label
Kind of assay: microscale thermophoresis. The format is binding. The settings on record: dye-labelled protein 20 nM.

Where [1] appears, read: 50 mM Tris pH 7.4, 10 mM MgCl2, 150 mM NaCl, 0.05% Tween 20, 22 °C.

T1 sequence (U9TZV5 entry or part of it): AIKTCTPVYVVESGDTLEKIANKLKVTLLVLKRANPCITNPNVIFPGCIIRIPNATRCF

Under setting [1], `CC(=O)N[C@H]1[C@H](O[C@H]2[C@H](O)[C@@H](NC(C)=O)C(O)O[C@@H]2CO)O[C@H](CO)[C@@H](O[C@@H]2O[C@H](CO)[C@@H](O[C@@H]3O[C@H](CO)[C@@H](O)[C@H](O)[C@H]3NC(C)=O)[C@H](O)[C@H]2NC(C)=O)[C@@H]1O` (some centres unmarked) [CO4, chitotetraose] yielded a Kd of 37.1 ± 1.4 µM. The same measure, in the same setting: then `CC(=O)N[C@H]1[C@H](O[C@H]2[C@H](O)[C@@H](NC(C)=O)[C@H](O[C@H]3[C@H](O)[C@@H](NC(C)=O)C(O)O[C@@H]3CO)O[C@@H]2CO)O[C@H](CO)[C@@H](O[C@@H]2O[C@H](CO)[C@@H](O[C@@H]3O[C@H](CO)[C@@H](O)[C@H](O)[C@H]3NC(C)=O)[C@H](O)[C@H]2NC(C)=O)[C@@H]1O` (some centres unmarked) [CO5], with 59.4 ± 2.1 µM.

Turning to `CC(=O)N[C@H]1[C@H](O[C@H]2[C@H](O)[C@@H](NC(C)=O)[C@H](O[C@H]3[C@H](O)[C@@H](NC(C)=O)[C@H](O[C@H]4[C@H](O)[C@@H](NC(C)=O)C(O)O[C@@H]4CO)O[C@@H]3CO)O[C@@H]2CO)O[C@H](CO)[C@@H](O[C@@H]2O[C@H](CO)[C@@H](O[C@@H]3O[C@H](CO)[C@@H](O[C@@H]4O[C@H](CO)[C@@H](O)[C@H](O)[C@H]4NC(C)=O)[C@H](O)[C@H]3NC(C)=O)[C@H](O)[C@H]2NC(C)=O)[C@@H]1O` (some centres unmarked) [CO7, chitoheptaose], under setting [1], the Kd worked out at 8.8 ± 1.2 µM. With LCO-IV(C18:1), for the setting “25 mM sodium cacodylate pH 6.0, 1 mM MgCl2, 1 mM CaCl2, 250 mM sucrose, 0.175% Fos-choline-10, 0.5% ethanol, 22 °C, single binding event, read-out: K d”, the Kd was ~0.24 µM. Consider LCO-IV(C18:1, S), for which, under “25 mM sodium cacodylate pH 6.0, 1 mM MgCl2, 1 mM CaCl2, 250 mM sucrose, 0.175% Fos-choline-10, 0.5% ethanol, 22 °C, first (high-affinity) of two binding events, read-out: K d”, the Kd was ~0.015 µM.
